Laboratory results taken from patent US20050009929A1, “Inhibition of the asexual reproduction of fungi” (priority 2001, published 2005).

System: Aspergillus niger
Test: Effect of farnesol on the sporulation of Aspergillus niger on malt extract agar
Assay type: cell-based
Conditions: 5 days at 25° C.; for Sporulation [%]: evaluated by appearance
Procedure: Quantities of 100 μl of a cell suspension of Aspergillus niger (1.5·10^7 cells/ml) were plated out onto malt agar extract (Merck) to which farnesol had been added in various quantities of 0; 25; 62.5; 125; 250 and 500 μM.

## CC(C)=CCCC(C)=CCCC(C)=CCO [farnesol]
Farnesol 25 μM in agar
  Sporulation [%]: 90%
Farnesol 62.5 μM in agar
  Sporulation [%]: 75%
Farnesol 125 μM in agar
  Sporulation [%]: 50%
Farnesol 250 μM in agar
  Sporulation [%]: 10%
Farnesol 500 μM in agar
  inhibition of sporulation (in words): completely suppressed
  Sporulation [%]: 0%
Farnesol 25 to 500 μM in agar
  inhibition of growth: None of the farnesol concentrations used inhibited growth
